Tests used:
NCI-H460 cells = assay: 48-hour cellular proliferation assay, sulforhodamine stain (human lung large cell carcinoma, MDR negative); assay type: cell-based; conditions: for IC50: NCI-H460 cells
Protocol: (§1) Compounds of this invention were tested in a 48-hour cellular proliferation assay that uses human colon adenocarcinoma, MDR positive (HCT-15) cells, and human lung large cell carcinoma, MDR negative (NCI-H460) cells, in the 96-well microtitre format described in Skehan P., et al. New Colorimetric Cytotoxicity Assay for Anticancer Drug Screening. 1990, J. Natl. Cancer Inst. 82:1107-1112, hereby incorporated by reference. Briefly, the wells of a microtitre plate were charged sequentially with cultured cells and compounds of the invention (1.0×10^-4 to 1.0×10^-11 M in 10% DMSO prepared by dissolving compounds of the invention in DMSO and adding 11 μL of the DMSO solution to 100 μL of culture medium for a final DMSO concentration of 10%). Two of the following controls were also present in each microtitre plate: a solvent (DMSO) control without drug that yielded a 0% inhibition level and a trichloroacetic acid-treated well that yielded a 100% inhibition level. The cells were grown in culture (37° C., 5% CO2 atmosphere) for 48 hours then fixed by the addition of trichloroacetic acid. The wells were stained with sulforhodamine, washed with 1% acetic acid, and treated with 0.01 M tris buffer (100 μL) to solubilize the adherent dye. The absorbance of the dye solution was measured with a Molecular Devices SpectraMax340 plate reader. Percent inhibition and Inhibitory Concentrations (IC50) values were obtained by calculating the proportional response of the experimental values to the absorbance values of the controls.

HCT-15 cells = assay: 48-hour cellular proliferation assay, sulforhodamine stain (human colon adenocarcinoma, MDR positive); assay type: cell-based
Protocol: as §1

[1] = Homo sapiens, values given in μM
[2] = Homo sapiens, NCI-460 cells, 10^-4 M

COc1cc(C2CN=C(c3ccc4c(ccn4CC(F)(F)F)c3)O2)cc(OC)c1OC (centres unmarked) [Example 78, 2-(1-(2,2,2-trifluoroethyl)indol-5-yl)-5-(3,4,5-trimethoxyphenyl)-Δ2,3-oxazoline]
IC50 (NCI-H460 cells; [1]): 3.5 µM | IC50 (HCT-15 cells; [1]): 1.9 µM

COc1cc(C2CN=C(c3ccc4c(ccn4C(F)F)c3)O2)cc(OC)c1OC (centres unmarked) [Example 61, 2-(1-difluoromethylindol-5-yl)-5-(3,4,5-trimethoxyphenyl)-Δ2,3-oxazoline]
IC50 (NCI-H460 cells; Homo sapiens, values in nM): 0.0018 µM | IC50 (HCT-15 cells; Homo sapiens, values in nM): 0.0019 µM

COc1ccc(C2=NCC(c3cc(OC)c(OC)c(OC)c3)O2)cc1OC (centres unmarked) [Example 17, 2-(3,4-dimethoxyphenyl)-5-(3,4,5-trimethoxyphenyl)-Δ2,3-oxazoline]
inhibition at 100 µM (NCI-H460 cells; [2]): 85.8% | inhibition at 100 µM (HCT-15 cells; Homo sapiens, 10^-4 M): 91%

COc1cc(C2CN=C(c3ccc4[nH]cc(C(C)=O)c4c3)O2)cc(OC)c1OC (centres unmarked) [Example 5, 2-(3-acetylindol-5-yl)-5-(3,4,5-trimethoxyphenyl)-Δ2,3-oxazoline]
NCI-460 (% Inhibition at 10^-4 M) (NCI-H460 cells; NCI-460 cells, 10^-4 M): 100% | HCT-15 (% Inhibition at 10^-4 M) (HCT-15 cells; 10^-4 M): 100%

COc1cc(C2CN=C(c3ccc4c(ccn4CO)c3)O2)cc(OC)c1OC (centres unmarked) [Example 69, 2-(1-hydroxymethylindol-5-yl)-5-(3,4,5-trimethoxyphenyl)-Δ2,3-oxazoline]
IC50 (NCI-H460 cells; Homo sapiens, values in nM): 0.68 µM | IC50 (HCT-15 cells; Homo sapiens, values in nM): 0.45 µM

COc1cc(C2CN=C(c3cc(Cl)c4[nH]ccc4c3)O2)cc(OC)c1OC (centres unmarked) [Example 65, 2-(7-chloro-5-indolyl)-5-(3,4,5-trimethoxyphenyl)-Δ2,3-oxazoline]
IC50 (NCI-H460 cells; Homo sapiens, values in nM): 0.051 µM | IC50 (HCT-15 cells; Homo sapiens, values in nM): 0.037 µM

COc1cc(C2CN=C(c3ccc4ccn(C)c4c3)O2)cc(OC)c1OC (centres unmarked) [Example 28, 2-(1-methylindol-6-yl)-5-(3 4.5-trimethoxyphenyl)-Δ2,3-oxazoline]
IC50 (NCI-H460 cells; Homo sapiens, values in nM): 0.39 µM | IC50 (HCT-15 cells; Homo sapiens, values in nM): 0.21 µM

COc1cc(C2=NCC(c3cc(OC)c(OC)c(OC)c3)O2)ccc1N (centres unmarked) [Example 10, 2-(4-amino-3-methoxyphenyl)-5-(3,4,5-trimethoxyphenyl)-Δ2,3-oxazoline]
inhibition at 100 µM (NCI-H460 cells; [2]): 100% | inhibition at 100 µM (HCT-15 cells; Homo sapiens, 10^-4 M): 100%

COc1cc(C2CN=C(c3ccc4c(c3)c(Cl)cn4C)O2)cc(OC)c1OC (centres unmarked) [Example 62, 2-(3-chloro-1-methylindol-5-yl)-5-(3,4,5-trimethoxyphenyl)-Δ2,3-oxazoline]
IC50 (NCI-H460 cells; Homo sapiens, values in nM): 0.037 µM | IC50 (HCT-15 cells; Homo sapiens, values in nM): 0.023 µM

COc1ccc(C2=NCC(c3cc(OC)c(OC)c(OC)c3)O2)cc1NC(=O)C(C)NC(=O)C(C)N (centres unmarked) [Example 41]
IC50 (NCI-H460 cells; values in nM): 0.59 µM | IC50 (HCT-15 cells; values in nM): 0.52 µM

COc1cc(C2CN=C(c3ccc4c(c3)cc(C)n4C)O2)cc(OC)c1OC (centres unmarked) [Example 71]
IC50 (NCI-H460 cells; Homo sapiens, values in nM): 0.017 µM | IC50 (HCT-15 cells; Homo sapiens, values in nM): 0.005 µM

COc1cc(C2CN=C(c3ccc4ncccc4c3)O2)cc(OC)c1OC (centres unmarked) [Example 35, 2-(6-guinolinvl)-5-(3,4,5-trimethoxyphenyl)-Δ2,3-oxazoline]
IC50 (NCI-H460 cells; [1]): 3.2 µM | IC50 (HCT-15 cells; [1]): 2.4 µM

COc1cc(C2CN=C(c3cc4ccccc4n3C)O2)cc(OC)c1OC (centres unmarked) [Example 34, 2-(1-methyl-indol-2-yl)-5-(3,4,5-trimethoxyphenyl)-Δ2,3-oxazoline]
IC50 (NCI-H460 cells; Homo sapiens, values in nM): 1.5 µM | IC50 (HCT-15 cells; Homo sapiens, values in nM): 0.65 µM

COc1cc(C2CN=C(c3ccnc4ccccc34)O2)cc(OC)c1OC (centres unmarked) [Example 37, 2-(4-quinolinyl)-5-(3,4,5-trimethoxyphenyl)-Δ2,3-oxazoline]
IC50 (NCI-H460 cells; [1]): 37 µM | IC50 (HCT-15 cells; [1]): 44 µM

COc1cc(C2CN=C(c3ccc4[nH]cc(F)c4c3)O2)cc(OC)c1OC (centres unmarked) [Example 67, 2-(3-fluoro-5-indolyl)-5-(3,4,5-trimethoxyphenyl)-Δ2,3-oxazoline]
IC50 (NCI-H460 cells; Homo sapiens, values in nM): 0.038 µM | IC50 (HCT-15 cells; Homo sapiens, values in nM): 0.023 µM

COc1cc(C2CN=C(c3cc(Cl)c4c(ccn4C)c3)O2)cc(OC)c1OC (centres unmarked) [Example 66, 2-(1-methyl-7-chloro-5-indolyl)-5-(3,4,5-trimethoxyphenyl)-Δ2,3-oxazoline]
IC50 (NCI-H460 cells; Homo sapiens, values in nM): 0.1 µM | IC50 (HCT-15 cells; Homo sapiens, values in nM): 0.046 µM

COc1cc(C2=NCC(c3cc(OC)c(OC)c(OC)c3)O2)ccc1OCc1ccccc1 (centres unmarked) [Example 18, 2-(4-benzyloxy-3-methoxyphenyl)-5-(3,4,5-trimethoxyphenyl)-Δ2,3-oxazoline]
inhibition at 100 µM (NCI-H460 cells; [2]): 92.2% | inhibition at 100 µM (HCT-15 cells; Homo sapiens, 10^-4 M): 96%

COc1cc(C2CN=C(c3ccc4c(c3)c(C(=O)C(F)(F)F)cn4C)O2)cc(OC)c1OC (centres unmarked) [Example 77, 2-(1-methyl-3-trifluoroacetylindol-5-yl)-5-(3,4,5-trimethoxyphenyl)-Δ2,3-oxazoline]
IC50 (NCI-H460 cells; [1]): 4.2 µM | IC50 (HCT-15 cells; [1]): 3.8 µM

COc1cc(C2CN=C(c3c[nH]c4ccccc34)O2)cc(OC)c1OC (centres unmarked) [Example 7, 2-(indol-3-yl)-5-(3,4,5-trimethoxyphenyl)-Δ2,3-oxazoline]
inhibition at 100 µM (NCI-H460 cells; [2]): 100% | inhibition at 100 µM (HCT-15 cells; Homo sapiens, 10^-4 M): 100%
